Source: PMC6009955, “Synthesis of new pyridothienopyrimidinone and pyridothienotriazolopyrimidine derivatives as pim-1 inhibitors” (Journal of Enzyme Inhibition and Medicinal Chemistry, 2017)
Like-named read-outs stand apart in the source and are kept apart here.

What was measured:
pim-2 = conditions: cited from earlier work
pim-1 = conditions: cited from earlier work
[1] = biological target: T1, Human proto-oncogene serine/threonine-protein kinase pim-1 (PIM1) (Homo sapiens, UniProt P11309); assay: Pim-1 kinase inhibitory activity (PIM1 ELISA kit); assay type: biochemical; conditions: for inhibition at 25 µM: read-out: % Inhibition at 25µM; for IC50: tested at 0.2, 1, 5 and 25 µM
T1 construct: purchased MBS7573
Protocol: The kinase inhibitory activity of the synthesised compounds was determined using Human proto-oncogene serine/threonine-protein kinase pim-1 (PIM1) ELISA Kit (catalog #MBS7573). All the compounds were tested for their inhibitory activity against pim-1 kinase at 0.2, 1, 5 and 25 µM using Staurosporine as a reference standard.

[2] = test system: human breast adenocarcinoma (MCF7); assay: In vitro cytotoxic activity, MTT method, MCF7; assay type: cell-based; conditions: MCF-7, MTT, 48 h incubation, means of three experiments
Protocol: Cell line cells were obtained from American Type Culture Collection (ATCC, Manassas, VA). The cell lines used in this study were human breast adenocarcinoma (MCF7) and human colon adenocarcinoma (HCT116). The cells were cultured using DMEM (Invitrogen/Life Technologies) supplemented with 10% FBS (Hyclone), 10 µg/mL insulin (Sigma) and 1% penicillin-streptomycin. All of the other chemicals and reagents were from Sigma or Invitrogen. […] The culture medium was removed to a centrifuge tube. The cell layer was rinsed with 0.25% (w/v) Trypsin 0.53 mM EDTA solution to remove all traces of serum which contains Trypsin inhibitor. Then, 2–3 ml of Trypsin EDTA solution was added and the cells were observed under an inverted microscope until the cell layer is dispersed (usually within 5–15 min.). A volume of 6 to 8 ml of complete growth medium was added and the cells were aspirated by gently pipetting. The cell suspension was transferred to the centrifuge tube with the culture medium and centrifuged at approximately 125 ×g for 5 to 10 min. The supernatant was discarded and the cells were suspended in fresh growth medium then incubated at 37 °C for 24 h. After treatment of the cells with the serial concentrations of the test compounds or the control Staurosporine in DMSO (at concentrations of 200, 100, 10, 1 and 0.1 µM), incubation was carried out for 48 h at 37 °C, then the plates were examined under the inverted microscope and proceeded for the MTT assay. The MTT method of monitoring in vitro cytotoxicity is well suited for use with multiwell plates. For best results, cells in the log phase of growth should be employed and final cell number should not exceed 10^6 cells/cm^2. Each test should include a blank containing complete medium without cells. Cell cultures were removed from the incubator into laminar flow hood. Each vial of MTT [M-5655] was reconstituted to be used with 3 ml of medium or balanced salt solution without phenol red and serum and the reconstituted MTT was added in an amount equal to 10% of the culture medium volume. Then the cultures were returned to the incubator for 2–4 h depending on the cell type and the maximum cell density. After the incubation period, the cultures were removed from incubator and the resulting formazan crystals were dissolved by adding an amount of MTT solvent (solubilisation solution) [M-8910] equal to the original culture medium volume. Gentle mixing in a gyratory shaker enhanced dissolution. Occasionally pipetting up and down [trituration] may be required to completely dissolve the MTT formazan crystals. The absorbance was measured at a wavelength of 450 nm using Bioline ELIZA reader. The background absorbance of the multiwell plates was measured at 690 nm and subtracted from the 450 nm measurement. The results are shown in Table 2 and graphically represented in Figure 5. […] The results in terms of IC50 in µM are given in Table 2 and represented graphically in Figure 5.

[3] = test system: human colon adenocarcinoma (HCT116); assay: In vitro cytotoxic activity, MTT method, HCT116; assay type: cell-based; conditions: 48 h incubation, means of three experiments
Protocol: Cell line cells were obtained from American Type Culture Collection (ATCC, Manassas, VA). The cell lines used in this study were human breast adenocarcinoma (MCF7) and human colon adenocarcinoma (HCT116). The cells were cultured using DMEM (Invitrogen/Life Technologies) supplemented with 10% FBS (Hyclone), 10 µg/mL insulin (Sigma) and 1% penicillin-streptomycin. All of the other chemicals and reagents were from Sigma or Invitrogen. […] The culture medium was removed to a centrifuge tube. The cell layer was rinsed with 0.25% (w/v) Trypsin 0.53 mM EDTA solution to remove all traces of serum which contains Trypsin inhibitor. Then, 2–3 ml of Trypsin EDTA solution was added and the cells were observed under an inverted microscope until the cell layer is dispersed (usually within 5–15 min.). A volume of 6 to 8 ml of complete growth medium was added and the cells were aspirated by gently pipetting. The cell suspension was transferred to the centrifuge tube with the culture medium and centrifuged at approximately 125 ×g for 5 to 10 min. The supernatant was discarded and the cells were suspended in fresh growth medium then incubated at 37 °C for 24 h. After treatment of the cells with the serial concentrations of the test compounds or the control Staurosporine in DMSO (at concentrations of 200, 100, 10, 1 and 0.1 µM), incubation was carried out for 48 h at 37 °C, then the plates were examined under the inverted microscope and proceeded for the MTT assay. The MTT method of monitoring in vitro cytotoxicity is well suited for use with multiwell plates. For best results, cells in the log phase of growth should be employed and final cell number should not exceed 10^6 cells/cm^2. Each test should include a blank containing complete medium without cells. Cell cultures were removed from the incubator into laminar flow hood. Each vial of MTT [M-5655] was reconstituted to be used with 3 ml of medium or balanced salt solution without phenol red and serum and the reconstituted MTT was added in an amount equal to 10% of the culture medium volume. Then the cultures were returned to the incubator for 2–4 h depending on the cell type and the maximum cell density. After the incubation period, the cultures were removed from incubator and the resulting formazan crystals were dissolved by adding an amount of MTT solvent (solubilisation solution) [M-8910] equal to the original culture medium volume. Gentle mixing in a gyratory shaker enhanced dissolution. Occasionally pipetting up and down [trituration] may be required to completely dissolve the MTT formazan crystals. The absorbance was measured at a wavelength of 450 nm using Bioline ELIZA reader. The background absorbance of the multiwell plates was measured at 690 nm and subtracted from the 450 nm measurement. […]

[4] = previous work, 2-aryl-2,3-dihydro derivatives ref 9, read-out: IC50 pim-1 inhibition

T1 sequence (P11309 whole entry): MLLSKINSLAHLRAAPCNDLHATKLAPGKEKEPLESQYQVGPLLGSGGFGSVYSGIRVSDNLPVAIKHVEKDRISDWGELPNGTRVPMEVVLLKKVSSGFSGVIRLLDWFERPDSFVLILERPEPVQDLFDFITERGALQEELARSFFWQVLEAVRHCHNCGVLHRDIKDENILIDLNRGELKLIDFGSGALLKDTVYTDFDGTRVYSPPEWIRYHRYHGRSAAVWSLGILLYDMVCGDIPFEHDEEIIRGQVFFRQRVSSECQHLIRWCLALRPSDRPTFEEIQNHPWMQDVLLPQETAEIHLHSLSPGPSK

O=C(O)c1ccc2c(c1)nc(Nc1cccc(Cl)c1)c1ccncc12 [CX-4595]
IC50 (pim-2): 186 nM | IC50 (pim-1; read-out: IC50 (pim-1)): 48 nM

Cc1nc2sc3c(c2c(C)c1Br)NC(c1ccc(O)cc1O)NC3=O (centres unmarked) [Compound 3d, 8-Bromo-2-(2,4-dihydroxyphenyl)-7,9-dimethyl-2,3-dihydropyrido[3′,2′:4,5]thieno[3,2-d]pyrimidin-4(1H)-one]
melting point: 290 to 291 °C | inhibition at 25 µM ([1]; pim-1 kinase, 25 µM): 81% | IC50 ([1]; pim-1 kinase): 1340 nM

Cc1nc2sc3c(c2c(C)c1Br)NC(c1ccccc1O)NC3=O (centres unmarked) [Vb]
IC50 (pim-1; [4]): 1380 nM

Cc1nc2c3sc4nc(C)c(Br)c(C)c4c3ncn2n1 [Compound 7a, 8-Bromo-2,7,9-trimethylpyrido[3′,2′:4,5]thieno[2,3-e][1,2,4]triazolo[1,5-c]pyrimidine]
inhibition at 25 µM ([1]; pim-1 kinase, 25 µM): 76% | IC50 ([1]; pim-1 kinase): 1760 nM

Cc1nc2sc3c(=N)n(N=Cc4ccccc4C(F)(F)F)cnc3c2c(C)c1Br [Compound 9b, 8-Bromo-4-imino-7,9-dimethyl-N-(2-(trifluoromethyl)benzylidene)pyrido[3′,2′:4,5]thieno[3,2-d]pyrimidin-3(4H)-amine]
melting point: > 300 °C | inhibition at 25 µM ([1]; pim-1 kinase, 25 µM): 89% | IC50 ([1]; pim-1 kinase): 220 nM

Cc1nc2sc3c(c2c(C)c1Br)NC(c1ccccc1Cl)NC3=O (centres unmarked) [Va]
IC50 (pim-1; [4]): 1180 nM

Cc1nc2sc3c(c2c(C)c1Br)NC(c1ccc(O)c(O)c1)NC3=O (centres unmarked) [Compound 3e, 8-Bromo-2-(3,4-dihydroxyphenyl)-7,9-dimethyl-2,3-dihydropyrido[3′,2′:4,5]thieno[3,2-d]pyrimidin-4(1H)-one]
inhibition at 25 µM ([1]; pim-1 kinase, 25 µM): 93% | IC50 ([1]; pim-1 kinase): 60 nM

Cc1nc2sc3c(c2c(C)c1Br)NC(c1ccc(F)cc1)NC3=O (centres unmarked) [Compound 3f, 8-Bromo-2-(4-fluorophenyl)-7,9-dimethyl-2,3-dihydropyrido[3′,2′:4,5]thieno[3,2-d]pyrimidin-4(1H)-one]
melting point: > 300 °C | inhibition at 25 µM ([1]; pim-1 kinase, 25 µM): 89% | IC50 ([1]; pim-1 kinase): 1000 nM

CN[C@@H]1C[C@H]2O[C@@](C)([C@@H]1OC)n1c3ccccc3c3c4c(c5c6ccccc6n2c5c31)C(=O)NC4 [Staurosporine, reference compound]
inhibition at 25 µM [1]: 94%

Cc1nc2sc3c(c2c(C)c1Br)NC(c1ccc(Cl)cc1)NC3=O (centres unmarked) [Compound 3c, 8-Bromo-2-(4-chlorophenyl)-7,9-dimethyl-2,3-dihydropyrido[3′,2′:4,5]thieno[3,2-d]pyrimidin-4(1H)-one]
IC50 ([2]; Homo sapiens, MCF7, 48 h): < 500 nM | IC50 [2]: 390 ± 70 nM | melting point: > 300 °C | inhibition at 25 µM ([1]; pim-1 kinase, 25 µM): 92% | IC50 ([1]; pim-1 kinase): 140 nM

CCOC(=O)Cc1nc2c3sc4nc(C)c(Br)c(C)c4c3ncn2n1 [Compound 8, ethyl 2-(8-bromo-7,9-dimethylpyrido[3′,2′:4,5]thieno[2,3-e][1,2,4]triazolo[1,5-c]pyrimidin-2-yl)acetate]
IC50 ([2]; Homo sapiens, MCF7, 48 h): < 500 nM | IC50 [2]: 410 ± 30 nM | melting point: 198 to 199 °C | inhibition at 25 µM ([1]; pim-1 kinase, 25 µM): 95% | IC50 ([1]; pim-1 kinase): 100 nM

Cc1nc2sc3c(c2c(C)c1Br)NC(c1ccsc1)NC3=O (centres unmarked) [Compound 3j, 8-Bromo-7,9-dimethyl-2-(thiophen-3-yl)-2,3-dihydropyrido[3′,2′:4,5]thieno[3,2-d]pyrimidin-4(1H)-one]
IC50 ([3]; Homo sapiens, HCT-116, 48 h): 4820 ± 210 nM | IC50 ([2]; Homo sapiens, MCF7, 48 h): < 500 nM | IC50 [2]: 310 ± 20 nM | melting point: 280 to 281 °C | inhibition at 25 µM ([1]; pim-1 kinase, 25 µM): 95% | IC50 ([1]; pim-1 kinase): 100 nM

Cc1nc2sc3c(c2c(C)c1Br)NC(c1ccc(Br)cc1)NC3=O (centres unmarked) [Compound 3b, 8-Bromo-2-(4-bromophenyl)-7,9-dimethyl-2,3-dihydropyrido[3′,2′:4,5]thieno[3,2-d]pyrimidin-4(1H)-one]
IC50 ([3]; Homo sapiens, HCT-116, 48 h): 2740 ± 150 nM | IC50 ([2]; Homo sapiens, MCF7, 48 h): 1840 ± 120 nM | melting point: > 300 °C | inhibition at 25 µM ([1]; pim-1 kinase, 25 µM): 96% | IC50 ([1]; pim-1 kinase): 60 nM

Cc1nc2sc3c(c2c(C)c1Br)NC(c1ccccc1C(F)(F)F)NC3=O (centres unmarked) [Vc]
IC50 (pim-1; [4]): 1970 nM

Cc1nc2sc3c(ncn4ncnc34)c2c(C)c1Br [Compound 6, 8-bromo-7,9-dimethylpyrido[3′,2′:4,5]thieno[2,3-e][1,2,4]triazolo[1,5-c]pyrimidine]
melting point: 277 to 278 °C | inhibition at 25 µM ([1]; pim-1 kinase, 25 µM): 81% | IC50 ([1]; pim-1 kinase): 1080 nM

Cc1nc2sc3c(=N)n(N=Cc4ccc(Br)cc4)cnc3c2c(C)c1Br [Compound 9a, 8-Bromo-N-(4-bromobenzylidene)-4-imino-7,9-dimethylpyrido[3′,2′:4,5]thieno[3,2-d]pyrimidin-3(4H)-amine]
melting point: > 300 °C | inhibition at 25 µM ([1]; pim-1 kinase, 25 µM): 88% | IC50 ([1]; pim-1 kinase): 520 nM

COc1ccc(C2NC(=O)c3sc4nc(C)c(Br)c(C)c4c3N2)cc1 (centres unmarked) [Compound 3h, 8-Bromo-2-(4-methoxyphenyl)-7,9-dimethyl-2,3-dihydropyrido[3′,2′:4,5]thieno[3,2-d]pyrimidin-4(1H)-one]
melting point: > 300 °C | inhibition at 25 µM ([1]; pim-1 kinase, 25 µM): 84% | IC50 ([1]; pim-1 kinase): 1170 nM

COc1cc(C2NC(=O)c3sc4nc(C)c(Br)c(C)c4c3N2)cc(OC)c1OC (centres unmarked) [Compound 3i, 8-Bromo-7,9-dimethyl-2-(3,4,5-trimethoxyphenyl)-2,3-dihydropyrido[3′,2′:4,5]thieno[3,2-d]pyrimidin-4(1H)-one]
melting point: > 300 °C | inhibition at 25 µM ([1]; pim-1 kinase, 25 µM): 81% | IC50 ([1]; pim-1 kinase): 930 nM

Cc1nc2sc3c(ncn4nc(C(F)(F)F)nc34)c2c(C)c1Br [Compound 7b, 8-Bromo-7,9-dimethyl-2-(trifluoromethyl)pyrido[3′,2′:4,5]thieno[2,3-e][1,2,4]triazolo[1,5-c]pyrimidine]
IC50 [3]: 650 ± 40 nM | IC50 ([3]; Homo sapiens, HCT-116, 48 h): < 1000 nM | IC50 ([2]; Homo sapiens, MCF7, 48 h): 4620 ± 140 nM | melting point: 199 to 200 °C | inhibition at 25 µM ([1]; pim-1 kinase, 25 µM): 93% | IC50 ([1]; pim-1 kinase): 80 nM

COc1cc(C2NC(=O)c3sc4nc(C)c(Br)c(C)c4c3N2)ccc1O (centres unmarked) [Compound 3g, 8-Bromo-2-(4-hydroxy-3-methoxyphenyl)-7,9-dimethyl-2,3-dihydropyrido[3′,2′:4,5]thieno[3,2-d]pyrimidin-4(1H)-one]
IC50 ([2]; Homo sapiens, MCF7, 48 h): < 500 nM | IC50 [2]: 460 ± 90 nM | inhibition at 25 µM ([1]; pim-1 kinase, 25 µM): 92% | IC50 ([1]; pim-1 kinase): 80 nM

Cc1nc2sc3c(c2c(C)c1Br)NC(c1ccc(OCc2ccccc2)cc1)NC3=O (centres unmarked) [Compound 3a, 2-(4-(Benzyloxy)phenyl)-8-bromo-7,9-dimethyl-2,3-dihydropyrido[3′,2′:4,5]thieno[3,2-d]pyrimidin-4(1H)-one]
melting point: 255 to 256 °C | inhibition at 25 µM ([1]; pim-1 kinase, 25 µM): 83% | IC50 ([1]; pim-1 kinase): 960 nM
